Source: patent US20260365698A1, “STAPLED PEPTIDES FOR SENSITIZATION OF CANCER TO TREATMENT” (Purdue Research Foundation, priority 2022, published 2026)
Bridge positions count the residues as written; N and C are the ends. Square brackets hold non-standard residues; d marks the D form. Peptide text beside a SMILES is read from it. S5 = C=CCCC[C@](C)(N)C(=O)O

Test system: glutathione (GSH) in A549 cells
Assay: GSH-Glo glutathione quantification
Assay type: cell-based
Conditions: 24 hours
Experimental: Data are from three independent experiments with standard deviation. ****p<0.0001, one-way ANOVA.
The manufacturer's instructions were followed. Cells were plated at a density of 20,000 cells/ml and treated with various concentrations of NIS for 24 hours.

CC[C@H](C)[C@H](NC(C)=O)C(=O)N[C@H](C(=O)N[C@@H](CCC(=O)O)C(=O)N[C@@H](CC(C)C)C(=O)N[C@@H](CCC(=O)O)C(=O)N[C@@]1(C)CCCC=CCCC[C@@](C)(C(=O)N[C@@H](CC(C)C)C(=O)N[C@@H](CCCCN)C(=O)N[C@@H](CC(=O)O)C(=O)N[C@@H](CCC(=O)O)C(=O)N[C@@H](CCCCN)C(=O)N[C@@H](CCC(=O)O)C(N)=O)NC(=O)[C@H](CC(=O)O)NC(=O)[C@H](CC(C)C)NC(=O)[C@H](CC(=O)O)NC1=O)C(C)C [N1S] (Ac-IVELE[S5]DLD[S5]LKDEKE-NH2; staple 6-10)
glutathione (GSH) levels: Significant reductions
